# Article PMC6851657 (Clinical Pharmacology and Therapeutics, 2019)
# Read-outs that look alike come from different tables or passages of the source.
# Tests used:
# CYP2C9 = CYP2C9 (Homo sapiens, UniProt P11712); conditions: cited from earlier work
# CYP3A4 [1] = biological target: T1, CYP3A4 (Homo sapiens, UniProt P08684); conditions: in vitro phenotyping, normalized to 100%; cited from earlier work
# [2] = ref Novartis data on file, 5, cited from earlier work
# CYP2C19 = CYP2C19 (Homo sapiens, UniProt P33261); test: Enzyme phenotyping, intrinsic clearance by retrograde calculation; type: in vitro ADME
# [3] = observed, ref Novartis data on file, cited from earlier work; for AUCinf / Cmax / t1/2: GM (CV%; range)
# [4] = single oral 0.25 mg, observed, cited from earlier work
# [5] = cited from earlier work; for t1/2 / AUCinf / Cmax / Tmax: observed; for t1/2: GM (CV%); for AUCinf / Cmax: GM (CV%; 90% CI); for Tmax: median (range)
# [6] = day 28, observed, cited from earlier work; for AUC(0–24 h) / Cmin: GM (CV%); for Cmax: GM (CV%; 90% CI)
# [7] = cited from earlier work; for AUC decrease: coadministration of itraconazole
# CYP2B6 = biological target: T2, CYP2B6 (Homo sapiens, UniProt P20813); test: Enzyme phenotyping, intrinsic clearance by retrograde calculation; type: in vitro ADME
# T2 sequence (P20813 1-491): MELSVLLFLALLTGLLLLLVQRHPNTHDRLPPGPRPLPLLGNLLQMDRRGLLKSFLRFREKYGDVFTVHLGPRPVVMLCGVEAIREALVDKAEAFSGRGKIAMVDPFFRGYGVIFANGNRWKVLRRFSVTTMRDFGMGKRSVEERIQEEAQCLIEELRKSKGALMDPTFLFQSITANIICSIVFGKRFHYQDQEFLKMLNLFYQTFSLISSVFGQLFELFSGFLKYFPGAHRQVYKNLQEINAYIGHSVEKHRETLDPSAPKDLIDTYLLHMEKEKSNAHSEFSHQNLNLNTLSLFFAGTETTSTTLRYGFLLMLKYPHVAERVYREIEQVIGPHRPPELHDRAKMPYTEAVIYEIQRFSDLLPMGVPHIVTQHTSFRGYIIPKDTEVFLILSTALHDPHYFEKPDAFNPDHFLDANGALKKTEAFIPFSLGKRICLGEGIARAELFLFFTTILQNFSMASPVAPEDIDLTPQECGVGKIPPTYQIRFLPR
# CYP3A4 [8] = biological target: T1, CYP3A4; test: as above; type: in vitro ADME
# [9] = 0.3 mg solution p.o. single dose
# [10] = 2.5 mg capsule p.o. single dose
# [11] = 2.5 mg solution p.o. single dose
# [12] = 17.5 mg capsule p.o. single dose
# [13] = coadministration of rifampin, CYP2C9*1/*1
# [14] = coadministration with fluconazole, CYP2C9*1/*1
# T1 sequence (P08684 whole entry): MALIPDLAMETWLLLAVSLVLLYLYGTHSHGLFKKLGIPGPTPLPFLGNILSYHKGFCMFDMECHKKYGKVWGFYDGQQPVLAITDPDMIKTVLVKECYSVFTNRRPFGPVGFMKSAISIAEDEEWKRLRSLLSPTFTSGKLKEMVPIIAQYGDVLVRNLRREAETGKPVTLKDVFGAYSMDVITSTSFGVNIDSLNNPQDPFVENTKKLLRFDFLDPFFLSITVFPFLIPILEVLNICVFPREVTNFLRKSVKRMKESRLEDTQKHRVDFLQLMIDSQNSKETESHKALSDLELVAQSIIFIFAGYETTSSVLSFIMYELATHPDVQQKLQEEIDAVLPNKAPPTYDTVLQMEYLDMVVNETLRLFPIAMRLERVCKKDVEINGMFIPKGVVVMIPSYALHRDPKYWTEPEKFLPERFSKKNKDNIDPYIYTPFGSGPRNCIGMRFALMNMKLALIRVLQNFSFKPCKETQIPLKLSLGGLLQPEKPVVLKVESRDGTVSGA
# Chain of CYP2C9 (P11712 whole entry): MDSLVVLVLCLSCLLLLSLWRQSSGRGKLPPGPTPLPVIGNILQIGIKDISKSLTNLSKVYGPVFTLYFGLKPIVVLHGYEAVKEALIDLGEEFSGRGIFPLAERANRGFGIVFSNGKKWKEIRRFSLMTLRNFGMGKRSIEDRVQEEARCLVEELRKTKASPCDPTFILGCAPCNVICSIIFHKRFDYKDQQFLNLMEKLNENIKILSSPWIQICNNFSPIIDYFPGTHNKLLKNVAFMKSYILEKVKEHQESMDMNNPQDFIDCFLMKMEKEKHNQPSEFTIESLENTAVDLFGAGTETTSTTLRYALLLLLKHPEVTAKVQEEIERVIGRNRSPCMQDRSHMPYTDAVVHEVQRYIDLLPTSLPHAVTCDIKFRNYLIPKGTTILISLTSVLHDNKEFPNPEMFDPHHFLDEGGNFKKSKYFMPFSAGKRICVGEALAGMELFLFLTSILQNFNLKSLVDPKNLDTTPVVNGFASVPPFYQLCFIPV
# Chain of CYP2C19 (P33261 whole entry): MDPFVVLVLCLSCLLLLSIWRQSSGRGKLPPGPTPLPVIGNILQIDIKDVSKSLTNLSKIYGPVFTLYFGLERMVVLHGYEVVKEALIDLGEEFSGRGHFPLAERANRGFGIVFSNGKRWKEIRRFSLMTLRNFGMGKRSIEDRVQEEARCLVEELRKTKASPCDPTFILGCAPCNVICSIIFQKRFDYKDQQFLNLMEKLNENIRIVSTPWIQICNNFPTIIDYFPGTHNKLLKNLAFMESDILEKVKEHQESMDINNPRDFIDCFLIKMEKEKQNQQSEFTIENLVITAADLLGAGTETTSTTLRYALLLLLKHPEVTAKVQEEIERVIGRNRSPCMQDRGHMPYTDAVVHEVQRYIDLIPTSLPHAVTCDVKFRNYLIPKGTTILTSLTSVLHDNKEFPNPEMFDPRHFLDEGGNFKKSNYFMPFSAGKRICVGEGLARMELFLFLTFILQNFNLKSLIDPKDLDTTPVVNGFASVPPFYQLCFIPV
smiles,measurement,setting,value
CCc1cc(/C(C)=N/OCc2ccc(C3CCCCC3)c(C(F)(F)F)c2)ccc1CN1CC(C(=O)O)C1 [siponimod],"fraction metabolized via CYP2C9 (fm,CYP2C9)",CYP2C9; in vitro phenotyping data,0.79
same,contribution of CYP2C9 to metabolism,"CYP2C9; in vitro phenotyping, normalized to 100%",79.3%
same,contribution of CYP3A4 to metabolism,CYP3A4 [1],18.5%
same,lower total body clearance from plasma vs CYP2C9*1/*1,[2]; CYP2C9*1/*3,35–38%
same,lower total body clearance from plasma vs CYP2C9*1/*1,[2]; CYP2C9*2/*2,20%
same,lower total body clearance from plasma vs CYP2C9*1/*1,[2]; CYP2C9*2/*3,45–48%
same,lower total body clearance from plasma vs CYP2C9*1/*1,[2]; CYP2C9*3/*3,74%
same,fmCYP2C19,CYP2C19; fraction metabolized,0.001
same,CLint (CYP2C19),"CYP2C19; retrograde calculator from CL 3.12 L/hour, fu(mic) set to 1",0.593 µL/min/pmol
same,AUCinf,[3]; 0.25 mg i.v. single dose,80.1 (25.6; 47.7–125) ng·hour/mL
same,Cmax,[3]; 0.25 mg i.v. single dose,3.22 (19; 1.88–3.81) ng/mL
same,t1/2,[3]; 0.25 mg i.v. single dose,27.4 (22.5; 20.1–47.7) h
same,Tmax,"[3]; 0.25 mg i.v. single dose, median (range)",2.92 (2.92–2.92) h
same,AUCinf,[3]; 0.25 mg p.o. single dose,67.4 (26; 39.8–105) ng·hour/mL
same,Cmax,[3]; 0.25 mg p.o. single dose,1.71 (24; 0.920–2.30) ng/mL
same,t1/2,[3]; 0.25 mg p.o. single dose,26.7 (22; 17.2–43.8) h
same,AUCinf,[4]; CYP2C9*1/*1,70.5 (21.2) ng·hour/mL
same,t1/2,[4]; CYP2C9*1/*1,28.1 (18.5) h
same,AUCinf,[4]; CYP2C9*2/*3,144 (15.7) ng·hour/mL
same,Cmax,[4]; CYP2C9*2/*3,2.45 (13.1) ng/mL
same,t1/2,[4]; CYP2C9*2/*3,50.9 (31.7) h
same,AUCinf,[4]; CYP2C9*3/*3,271 (22.4) ng·hour/mL
same,Cmax,[4]; CYP2C9*3/*3,2.35 (29.0) ng/mL
same,t1/2,[4]; CYP2C9*3/*3,126 (12.7) h
same,t1/2,[5]; [9],33.21 (28) h
same,AUCinf,[5]; [9],89.3 (20; 79.2–99.4) ng·hour/mL
same,Cmax,[5]; [9],2.26 (6; 2.17–2.34) ng/mL
same,Tmax,[5]; [9],5 (4.00–8.00) h
same,t1/2,[5]; 1 mg solution p.o. single dose,45.7 (26) h
same,AUCinf,[5]; 1 mg solution p.o. single dose,349 (28; 292–406) ng·hour/mL
same,Cmax,[5]; 1 mg solution p.o. single dose,7.43 (42; 5.37–9.50) ng/mL
same,Tmax,[5]; 1 mg solution p.o. single dose,5 (4.00–15.7) h
same,t1/2,[5]; [10],29.3 (17) h
same,AUCinf,[5]; [10],745 (25; 632–858) ng·hour/mL
same,Cmax,[5]; [10],19.3 (19; 17.1–21.5) ng/mL
same,Tmax,[5]; [10],6 (4.00–8.00) h
same,t1/2,[5]; [11],27.0 (22) h
same,AUCinf,[5]; [11],766 (36; 598–935) ng·hour/mL
same,Cmax,[5]; [11],21.9 (35; 16.7–27.0) ng/mL
same,Tmax,[5]; [11],4 (3.00–8.00) h
same,t1/2,[5]; 5 mg capsule p.o. single dose,31.3 (19) h
same,AUCinf,[5]; 5 mg capsule p.o. single dose,"1,260 (20; 1,149–1,384) ng·hour/mL"
same,Cmax,[5]; 5 mg capsule p.o. single dose,38.5 (21; 33.5–41.5) ng/mL
same,Tmax,[5]; 5 mg capsule p.o. single dose,3 (2.00–8.00) h
same,t1/2,[5]; 10 mg capsule p.o. single dose,32.0 (17) h
same,AUCinf,[5]; 10 mg capsule p.o. single dose,"2,710 (14; 2,507–2,915) ng·hour/mL"
same,Cmax,[5]; 10 mg capsule p.o. single dose,77.3 (25; 64.8–89.7) ng/mL
same,Tmax,[5]; 10 mg capsule p.o. single dose,5 (3.82–16.0) h
same,t1/2,[5]; [12],42.3 (38) h
same,AUCinf,[5]; [12],"4,230 (25; 3,666–4,792) ng·hour/mL"
same,Cmax,[5]; [12],111 (32; 93.7–128.4) ng/mL
same,Tmax,[5]; [12],4 (2.00–8.00) h
same,t1/2,[5]; 25 mg capsule p.o. single dose,47.7 (20) h
same,AUCinf,[5]; 25 mg capsule p.o. single dose,"8,140 (24; 6,987–9,302) ng·hour/mL"
same,Cmax,[5]; 25 mg capsule p.o. single dose,217 (29; 180–254) ng/mL
same,Tmax,[5]; 25 mg capsule p.o. single dose,3.50 (1.50–12.0) h
same,t1/2,[5]; 75 mg capsule p.o. single dose,56.7 (12) h
same,Cmax,[5]; 75 mg capsule p.o. single dose,491 (51; 346–637) ng/mL
same,Tmax,[5]; 75 mg capsule p.o. single dose,6 (2.00–24.00) h
same,"elimination half‐life (t1/2), range",[5],22 to 38 h
same,mean elimination half‐life (t1/2),[5],~ 30 hours
same,AUC(0–24 h),[6]; 0.3 mg solution p.o. q.d.,97.9 (19) ng·hour/mL
same,Cmin,[6]; 0.3 mg solution p.o. q.d.,2.83 (27) ng/mL
same,Cmax,[6]; 0.3 mg solution p.o. q.d.,5.13 (16; 4.76–5.86) ng/mL
same,AUC(0–24 h),[6]; 1 mg solution p.o. q.d.,282 (16) ng·hour/mL
same,Cmin,[6]; 1 mg solution p.o. q.d.,7.74 (20) ng/mL
same,Cmax,[6]; 1 mg solution p.o. q.d.,14.9 (10; 14.0–15.9) ng/mL
same,AUC(0–24 h),[6]; 2.5 mg capsule p.o. q.d.,692 (45) ng·hour/mL
same,Cmin,[6]; 2.5 mg capsule p.o. q.d.,15.2 (120) ng/mL
same,Cmax,[6]; 2.5 mg capsule p.o. q.d.,38.3 (37; 29.1–47.4) ng/mL
same,AUC(0–24 h),[6]; 10 mg capsule p.o. q.d.,"2,580 (24) ng·hour/mL"
same,Cmin,[6]; 10 mg capsule p.o. q.d.,70.6 (29) ng/mL
same,Cmax,[6]; 10 mg capsule p.o. q.d.,147 (24; 126–168) ng/mL
same,AUC(0–24 h),[6]; 20 mg capsule p.o. q.d.,"6,370 (23) ng·hour/mL"
same,Cmin,[6]; 20 mg capsule p.o. q.d.,166 (88) ng/mL
same,Cmax,[6]; 20 mg capsule p.o. q.d.,359 (17; 325–394) ng/mL
same,AUC decrease,[7]; CYP2C9*1/*2,9–10%
same,AUC decrease,[7]; CYP2C9*1/*3,24%
same,AUC reduction,[7]; [13],57%
same,Cmax reduction,[7]; [13],45%
same,AUC increase,[7]; [14],increased approximately two fold
same,Cmax increase,[7]; [14],~ 10%
same,In vitro intrinsic clearance (CYP2B6),CYP2B6,0.733 µL/min/pmol
same,fmCYP2B6,CYP2B6; fraction metabolized,0.004
same,CLint (CYP3A4),CYP3A4 [8],5.607 µL/min/pmol
same,fmCYP3A4,CYP3A4 [8]; CYP2C9*1/*1,0.175
same,fmCYP3A4,CYP3A4 [8]; CYP2C9*1/*2,0.189
same,fmCYP3A4,CYP3A4 [8]; CYP2C9*1/*3,0.287
same,fmCYP3A4,CYP3A4 [8]; CYP2C9*2/*2,0.244
same,fmCYP3A4,CYP3A4 [8]; CYP2C9*2/*3,0.343
same,fmCYP3A4,CYP3A4 [8]; fraction metabolized,0.185
